Earlier results in patent US20240226070A1, “URAT1 INHIBITOR, PHARMACEUTICAL COMPOSITIONS AND USES THEREOF” (UR-1 Therapeutics, Inc., priority 2021, published 2024).

Columns and labels:
OAT1 = target: T1, OAT1 (Homo sapiens, UniProt Q4U2R8); conditions: in vitro
T1 sequence (Q4U2R8 1-563): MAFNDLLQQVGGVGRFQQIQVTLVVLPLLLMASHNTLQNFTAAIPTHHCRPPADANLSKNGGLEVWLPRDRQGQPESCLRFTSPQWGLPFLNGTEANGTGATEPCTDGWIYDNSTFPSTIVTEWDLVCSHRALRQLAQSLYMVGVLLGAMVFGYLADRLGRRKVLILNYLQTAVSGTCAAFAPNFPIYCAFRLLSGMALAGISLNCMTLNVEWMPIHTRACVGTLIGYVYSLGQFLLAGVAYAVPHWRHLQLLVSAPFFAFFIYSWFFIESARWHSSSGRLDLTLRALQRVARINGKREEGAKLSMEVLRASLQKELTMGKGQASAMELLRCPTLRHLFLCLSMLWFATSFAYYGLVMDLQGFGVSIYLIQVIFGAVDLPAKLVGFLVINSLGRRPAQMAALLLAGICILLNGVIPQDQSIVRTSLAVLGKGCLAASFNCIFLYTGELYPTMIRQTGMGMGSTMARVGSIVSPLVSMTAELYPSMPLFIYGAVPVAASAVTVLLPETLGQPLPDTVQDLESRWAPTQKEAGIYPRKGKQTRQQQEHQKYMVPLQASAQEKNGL

[1] = oral administration, 1.3 mg/kg
OAT3 = target: T2, OAT3 (Homo sapiens, UniProt Q8TCC7); conditions: in vitro
T2 sequence (Q8TCC7 1-542): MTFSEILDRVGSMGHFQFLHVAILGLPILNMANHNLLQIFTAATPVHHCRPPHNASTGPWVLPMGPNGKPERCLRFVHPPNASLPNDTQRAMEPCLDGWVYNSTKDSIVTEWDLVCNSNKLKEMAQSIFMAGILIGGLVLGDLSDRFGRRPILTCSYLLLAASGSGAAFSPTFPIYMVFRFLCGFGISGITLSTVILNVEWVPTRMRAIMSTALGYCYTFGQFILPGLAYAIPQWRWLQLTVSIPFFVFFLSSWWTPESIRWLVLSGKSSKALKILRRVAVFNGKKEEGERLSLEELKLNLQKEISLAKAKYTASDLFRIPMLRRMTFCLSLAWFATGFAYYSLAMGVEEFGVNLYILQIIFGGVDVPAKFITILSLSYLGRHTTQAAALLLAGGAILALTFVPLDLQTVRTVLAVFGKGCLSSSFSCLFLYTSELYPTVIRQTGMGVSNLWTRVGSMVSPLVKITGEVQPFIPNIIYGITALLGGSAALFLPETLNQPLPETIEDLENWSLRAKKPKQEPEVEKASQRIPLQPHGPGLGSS

[2] = target: T3, ATP-binding cassette subfamily G member 2 (ABCG2) (Homo sapiens, UniProt Q9UNQ0); conditions: in vitro
T3 sequence (Q9UNQ0 1-655): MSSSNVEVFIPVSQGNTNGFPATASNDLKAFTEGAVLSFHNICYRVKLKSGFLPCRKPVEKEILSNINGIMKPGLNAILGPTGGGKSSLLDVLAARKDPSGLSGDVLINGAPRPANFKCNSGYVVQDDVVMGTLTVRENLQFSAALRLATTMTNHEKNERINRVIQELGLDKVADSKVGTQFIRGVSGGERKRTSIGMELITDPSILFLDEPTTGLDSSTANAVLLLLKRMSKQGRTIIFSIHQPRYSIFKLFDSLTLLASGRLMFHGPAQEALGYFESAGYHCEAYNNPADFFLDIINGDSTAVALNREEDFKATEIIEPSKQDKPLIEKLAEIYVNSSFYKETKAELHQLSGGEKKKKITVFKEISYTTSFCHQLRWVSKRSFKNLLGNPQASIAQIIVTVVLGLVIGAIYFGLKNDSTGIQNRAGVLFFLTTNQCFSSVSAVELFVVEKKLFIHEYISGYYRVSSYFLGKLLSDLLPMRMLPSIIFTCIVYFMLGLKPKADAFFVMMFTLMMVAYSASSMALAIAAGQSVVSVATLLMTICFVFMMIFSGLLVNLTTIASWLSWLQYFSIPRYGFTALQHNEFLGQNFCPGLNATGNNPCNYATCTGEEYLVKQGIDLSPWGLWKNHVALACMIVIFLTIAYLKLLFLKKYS

5/6 Nx rats = conditions: for effect on aggravation of CKD by hyperuricemia: 5/6 Nx rats dosed with potassium oxonate (750 mg/kg BW)

| SMILES | IC50 (OAT1) | Cmax [1] | oral bioavailability [1] | plasma clearance ([1]; Sprague-Dawley rats) | terminal elimination half-life (T1/2) ([1]; Sprague-Dawley rats) | IC50 (OAT3) | IC50 [2] | effect on aggravation of CKD by hyperuricemia (5/6 Nx rats) | nephroprotection (5/6 Nx rats; 5/6 rats that not received oxonic acid) |
| --- | --- | --- | --- | --- | --- | --- | --- | --- | --- |
| O=C(c1cc(Cl)c(O)c(Cl)c1)N1CS(=O)(=O)c2ccccc21 [Dotinurad, 3-(3,5-dichloro-4-hydroxybenzoyl)-1,1-dioxo-2,3-dihydro-1,3-benzothiazole] | 4.08 µM | 415 ng/mL | 2.5% | 402.1 mL/min/kg | 1.88 h | 1.32 µM | 4.16 µM |  |  |
| Oc1ncnc2[nH]ncc12 [Allopurinol, allopurinol] |  |  |  |  |  |  |  | prevented the aggravation of the disease |  |
| Cc1nc(-c2ccc(OCC(C)C)c(C#N)c2)sc1C(=O)O [Febuxostat, febuxostat] |  |  |  |  |  |  |  | prevented the aggravation of the disease | significant nephroprotection |
